Experimental findings from patent US9440952B2, “Compounds inhibiting leucine-rich repeat kinase enzyme activity” (Merck Sharp & Dohme Corp., priority 2013, dated 2016) are described below.

Read-outs that look alike come from different tables or passages of the source.

In this test the target is T1, LRRK2(G2019S mutation, GST-LRRK2(amino acids 970-2527)) (Homo sapiens, UniProt Q5S007, G2019S).
T1 construct: GST-LRRK2(amino acids 970-2527); GST (N); purchased Life Technologies Corporation
Description: LRRK2 Km ATP LanthaScreen Assay. It counts as biochemical. Summed up: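 IC50 values are means of several runs in the Km-ATP LanthaScreen format, analysed by curve fitting of the LanthaScreen read-out.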

The mark [1] stands for this setting: Km ATP LanthaScreen, mean IC50 of several tests, read-out: LRRK2 IC50.
Where [2] appears, read: Km ATP LanthaScreen Assay, LRRK2 G2019S, mean IC50 values, read-out: LRRK2 IC50.
[3] abbreviates: Km ATP LanthaScreen Assay; LRRK2 G2019S; mean IC50 values; Examples 185-215; read-out: LRRK2 IC5).

T1 sequence (Q5S007 970-2527 G2019S): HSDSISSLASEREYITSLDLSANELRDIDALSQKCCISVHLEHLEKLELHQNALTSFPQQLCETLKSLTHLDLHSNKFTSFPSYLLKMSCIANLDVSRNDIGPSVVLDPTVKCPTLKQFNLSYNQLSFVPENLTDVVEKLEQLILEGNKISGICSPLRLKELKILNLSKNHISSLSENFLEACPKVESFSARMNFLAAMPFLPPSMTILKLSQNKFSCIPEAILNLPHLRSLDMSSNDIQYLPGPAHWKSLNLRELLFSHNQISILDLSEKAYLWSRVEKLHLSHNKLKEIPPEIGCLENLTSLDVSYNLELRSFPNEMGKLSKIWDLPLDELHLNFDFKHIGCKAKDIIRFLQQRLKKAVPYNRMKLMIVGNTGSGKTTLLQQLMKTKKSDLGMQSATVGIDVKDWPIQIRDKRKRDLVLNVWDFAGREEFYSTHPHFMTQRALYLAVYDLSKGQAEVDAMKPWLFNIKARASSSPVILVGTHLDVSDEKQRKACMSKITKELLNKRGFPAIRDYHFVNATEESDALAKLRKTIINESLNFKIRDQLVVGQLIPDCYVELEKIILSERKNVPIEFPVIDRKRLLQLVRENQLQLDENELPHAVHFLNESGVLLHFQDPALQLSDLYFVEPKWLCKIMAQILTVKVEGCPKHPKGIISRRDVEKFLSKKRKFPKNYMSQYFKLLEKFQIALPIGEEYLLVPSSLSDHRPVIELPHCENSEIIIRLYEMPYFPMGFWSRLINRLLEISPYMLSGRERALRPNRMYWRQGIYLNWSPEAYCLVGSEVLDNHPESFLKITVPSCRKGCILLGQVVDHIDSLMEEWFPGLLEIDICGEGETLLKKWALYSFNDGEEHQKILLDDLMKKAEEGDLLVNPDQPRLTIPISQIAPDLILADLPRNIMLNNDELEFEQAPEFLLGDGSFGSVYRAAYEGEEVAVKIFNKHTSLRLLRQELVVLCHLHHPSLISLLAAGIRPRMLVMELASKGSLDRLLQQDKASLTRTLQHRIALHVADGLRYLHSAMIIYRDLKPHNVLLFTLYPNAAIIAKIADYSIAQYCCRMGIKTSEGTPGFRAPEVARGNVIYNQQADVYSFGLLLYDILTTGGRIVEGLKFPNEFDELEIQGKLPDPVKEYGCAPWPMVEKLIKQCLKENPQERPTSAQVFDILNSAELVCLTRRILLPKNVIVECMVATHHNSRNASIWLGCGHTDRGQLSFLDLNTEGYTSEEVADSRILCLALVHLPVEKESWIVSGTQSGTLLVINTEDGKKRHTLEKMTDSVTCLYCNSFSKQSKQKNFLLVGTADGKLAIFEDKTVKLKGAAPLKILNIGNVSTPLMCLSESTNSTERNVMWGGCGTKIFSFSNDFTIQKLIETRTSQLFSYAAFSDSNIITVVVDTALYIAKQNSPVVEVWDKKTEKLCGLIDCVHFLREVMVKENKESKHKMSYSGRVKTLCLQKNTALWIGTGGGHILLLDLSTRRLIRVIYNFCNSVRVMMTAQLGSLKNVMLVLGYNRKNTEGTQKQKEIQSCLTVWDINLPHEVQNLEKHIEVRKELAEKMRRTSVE

Consider `c1cc(-c2ccc3[nH]nc(-c4ccnc(N5CCOCC5)c4)c3c2)[nH]n1` [Example 346], for which the IC50 under setting [1] is less than 0.6 nM.
With `C1=CC(c2noc(C3CCN(c4cc(-c5n[nH]c6ccccc56)ccn4)CC3)n2)=CCC1` [Example 20], the IC50 under setting [2] is 27 nM.
In the case of `c1cnc(-c2ccc3[nH]nc(-c4ccnc(N5CCOCC5)c4)c3c2)cn1` [Example 324], the IC50 under setting [1] was 1.1 nM.
Take `CN(C)[C@@H]1CCN(c2cc(-c3n[nH]c4ccccc34)ccn2)C1` [Example 35]: the IC50 under setting [2] amounted to 28 nM.
On to `CC(C)Oc1ccc2[nH]nc(-c3ccnc(N4CCCC(c5nncn5C)C4)c3)c2c1` (stereo not shown) [Example 193], for which the IC50 under setting [3] is 6.2 nM.
As to `O=C(O)[C@H]1CCCN(c2cc(-c3n[nH]c4ccccc34)ccn2)C1` [Example 41], the IC50 under setting [2] worked out at 24 nM.
Turning to `Cn1cc(-c2cc3c(-c4ccnc(N5CC(F)C5)c4)n[nH]c3cc2F)cn1` [Ex 353], the IC50 under setting [1] is 4.6 nM.
As for `CC(C)Oc1ccc2[nH]nc(-c3ccnc(N4CC(S(C)(=O)=O)C4)c3)c2c1` [Example 184], under setting [2], the IC50 worked out at 5.4 nM.
In the case of `Cn1cc(-c2ccc3[nH]nc(-c4ccnc(N5CCN(c6nnc(C7CC7)o6)CC5)c4)c3c2)cn1` [Example 276], under setting [1], the IC50 was determined as 2.7 nM.
For `OC1(c2ccccn2)CCN(c2cc(-c3n[nH]c4ccccc34)ccn2)CC1` [Example 23], under setting [2], the IC50 came out at 20 nM.
For the molecule `COC1(C)CN(c2cc(-c3n[nH]c4ccc(OC(F)(F)F)cc34)ccn2)C1` [Example 253], under setting [2], the IC50 came to 201 nM.
The same measure, in the same setting: then `CC(C)Oc1ccc2[nH]nc(-c3ccnc(NCC4CCCO4)c3)c2c1` (stereo not shown) [Example 135], with 3.2 nM; and `CN(C)CCC(Nc1cc(-c2n[nH]c3ccccc23)ccn1)c1ccccn1` (stereo not shown) [Example 45], with 72 nM.
For `O=C(O)[C@@H]1CCCN(c2cc(-c3n[nH]c4ccccc34)ccn2)C1` [Example 52], the IC50 under setting [2] turned out to be 31 nM.
In the case of `c1ccc2c(-c3ccnc(N4CCC(N5CCOCC5)CC4)c3)n[nH]c2c1` [Example 27], the IC50 under setting [2] worked out at 32 nM.
With `c1cc(-c2n[nH]c3ccc(OCC4CCCO4)cc23)cc(N2CCOCC2)n1` (stereo not shown) [Example 83], the IC50 under setting [2] came to 5.4 nM.
On to `c1cncc(-c2ccc3[nH]nc(-c4ccnc(N5CCOCC5)c4)c3c2)c1` [Example 98], for which the IC50 under setting [1] turned out to be 3.4 nM.
On to `CN1CC=C2CN(c3cc(-c4n[nH]c5ccccc45)ccn3)CC21` (stereo not shown) [Example 55], for which the IC50 under setting [2] is 14 nM.
Still for that read-out and setting: under `CC(C)Oc1ccc2[nH]nc(-c3ccnc(NC(=O)C4CC(=O)C4)c3)c2c1` [Example 153] stands 29.7 nM.
Take `CCOc1ccc2[nH]nc(-c3ccnc(NCCOC)c3)c2c1` [Example 354]: under setting [1], the IC50 was determined as 6.2 nM.
As for `CCc1nnc2n1CCN(c1cc(-c3n[nH]c4ccc(OC(F)(F)F)cc34)ccn1)C2` [Example 249], the IC50 under setting [2] is 190 nM.
On the same count and under the same terms, under `CN1CCC(Nc2cc(-c3n[nH]c4ccccc34)ccn2)C1=O` (stereo not shown) [Example 68] stands 108 nM.
Turning to `Cc1nonc1N1CCN(c2cc(-c3n[nH]c4ccc(OC(C)C)cc34)ccn2)CC1` [Example 207], the IC50 under setting [3] amounted to 20.8 nM.
For `COCCN(C)c1cc(-c2n[nH]c3ccccc23)ccn1` [Example 3], the IC50 under setting [2] stood at 48 nM.
On the same count and under the same terms, then `CCOc1ccc2[nH]nc(-c3ccnc(N4CCn5ccnc5C4)c3)c2c1` [Example 226], with 18.9 nM; and `CO[C@H]1CN(c2cc(-c3n[nH]c4ccc(OC(F)(F)F)cc34)ccn2)C[C@@H]1O` [Example 238], with 165 nM.
The same measure, in the same setting: then `OC1(c2cccnc2)CCN(c2cc(-c3n[nH]c4ccccc34)ccn2)CC1` [Example 26], with 19 nM.
Take `c1ccc(Cc2ccc3[nH]nc(-c4ccnc(N5CCOCC5)c4)c3c2)cc1` [Example 116]: the IC50 under setting [1] stood at 45 nM.
With `c1ccc2c(-c3ccnc(N4CCCCCC4)c3)n[nH]c2c1` [Example 2], under setting [2], the IC50 amounted to 76 nM.
As to `CC1=NC2(CCCN(c3cc(-c4n[nH]c5ccccc45)ccn3)C2)C(=O)N1` (stereo not shown) [Example 60], under setting [2], the IC50 was found to be 202 nM.
As to `c1cc(-c2ccc3[nH]nc(-c4ccnc(N5CCOCC5)c4)c3c2)cc(N2CCOCC2)n1` [Example 399], the IC50 under setting [1] amounted to 74 nM.
The same measure, in the same setting: then `CS(=O)(=O)c1ccc2[nH]nc(-c3ccnc(N4CCOCC4)c3)c2c1` [Example 369], with 109 nM.
Still for that read-out and setting: then `c1cc(-c2n[nH]c3ccc(-c4cncs4)cc23)cc(N2CCOCC2)n1` [Example 327], with less than 0.6 nM.
Turning to `c1ccc2c(-c3ccnc(N4CCC5OCCC54)c3)n[nH]c2c1` (stereo not shown) [Example 63], under setting [2], the IC50 came to 40 nM.
Take `CC(C)Oc1cc2c(-c3ccnc(N4CCOCC4)c3)n[nH]c2cc1F` [Example 364]: the IC50 under setting [1] worked out at 1.9 nM.
As to `CC(C)Oc1ccc2[nH]nc(-c3ccnc(NC(=O)CC4COCCO4)c3)c2c1` (stereo not shown) [Example 168], under setting [2], the IC50 was 33.4 nM.
On the same count and under the same terms, under `CN(CC1CCC(=O)N1)c1cc(-c2n[nH]c3ccccc23)ccn1` (stereo not shown) [Example 69] stands 75 nM.
Regarding `c1cc(-c2ccc3[nH]nc(-c4ccnc(N5CCOCC5)c4)c3c2)cnn1` [Example 319], under setting [1], the IC50 came to 8.2 nM.
On the same count and under the same terms, under `CCOc1ccc2[nH]nc(-c3ccnc(N4CCCC4)c3)c2c1` [Example 297] stands 7.3 nM.
For `O=C1CCN(c2cc(-c3n[nH]c4ccccc34)ccn2)CCN1` [Example 72], the IC50 under setting [2] turned out to be 57 nM.
On the same count and under the same terms, under `CO[C@H]1CCN(c2cc(-c3n[nH]c4ccc(OC(C)C)cc34)ccn2)C1` [Example 177] stands 5.2 nM; under `c1ccc2c(-c3ccnc(NCCn4ccnc4)c3)n[nH]c2c1` [Example 64], 35 nM.
Consider `Cn1cc(-c2ccc3[nH]nc(-c4ccnc(N5CCC(F)(F)CC5)c4)c3c2)cn1` [Example 273], for which the IC50 under setting [1] came out at 3 nM.
For the molecule `Cc1nc(C)c(CC(=O)Nc2cc(-c3n[nH]c4ccc(OC(C)C)cc34)ccn2)s1` [Example 163], under setting [2], the IC50 came to 34.9 nM.
Take `O=C1CN(c2cc(-c3n[nH]c4ccccc34)ccn2)CCN1` [Example 49]: under setting [2], the IC50 turned out to be 23 nM.
Consider `CCS(=O)(=O)c1ccc2[nH]nc(-c3ccnc(N4CCOCC4)c3)c2c1` [Example 371], for which the IC50 under setting [1] came to 48 nM.
On to `CC(C)Oc1ccc2[nH]nc(-c3ccnc(N4CCCC(O)C4)c3)c2c1` (stereo not shown) [Example 170], for which the IC50 under setting [2] was 6.4 nM.
Regarding `CC(C)Oc1ccc2[nH]nc(-c3ccnc(N4CCN(CCO)CC4)c3)c2c1` [Example 299], under setting [1], the IC50 was found to be 2 nM.
Take `OCCC1CN(c2cc(-c3n[nH]c4ccc(CO)cc34)ccn2)CCO1` (stereo not shown) [Example 128]: the IC50 under setting [2] is 10 nM.
Still for that read-out and setting: under `CCN(CC)CCOc1ccc2[nH]nc(-c3ccnc(N4CCOCC4)c3)c2c1` [Example 80] stands 37 nM.
Regarding `O=C(CN1CCN(c2cc(-c3n[nH]c4ccccc34)ccn2)CC1)N1CCOCC1` [Example 57], the IC50 under setting [2] was found to be 6.1 nM.
For the molecule `CC(C)Oc1ccc2[nH]nc(-c3ccnc(N4CCC(F)(F)C4)c3)c2c1` [Example 286], the IC50 under setting [1] was 5.5 nM.
With `CC(C)Oc1ccc2[nH]nc(-c3ccnc(N4CC5CCC(C4)O5)c3)c2c1` [Example 280], the IC50 under setting [1] was 5 nM.
With `CN1CCN(c2cc(-c3n[nH]c4ccc(OC(F)(F)F)cc34)ccn2)CC1` [Example 234], the IC50 under setting [2] stood at 82.5 nM.
Consider `c1ccc2c(-c3ccnc(N4CCNCC4)c3)n[nH]c2c1` [Example 75], for which the IC50 under setting [1] worked out at 80 nM.
As to `c1ccc2c(-c3ccnc(N4CCC(N5CCCC5)CC4)c3)n[nH]c2c1` [Example 29], the IC50 under setting [2] was 45 nM.
As for `COC1CCN(c2cc(-c3n[nH]c4ccc(OC(C)C)cc34)ccn2)CC1` [Example 290], the IC50 under setting [1] was determined as 6 nM.
In the case of `Cc1nc2c(o1)CCN(c1cc(-c3n[nH]c4ccc(OC(F)(F)F)cc34)ccn1)C2` [Example 251], the IC50 under setting [2] was 431 nM.
Regarding `CCOc1ccc2[nH]nc(-c3ccnc(N[C@@H](C)COC)c3)c2c1` [Example 356], the IC50 under setting [1] came to 10 nM.
For `CN(Cc1ccc2[nH]nc(-c3ccnc(N4CCOCC4)c3)c2c1)C1CCCC1` [Example 92], under setting [2], the IC50 turned out to be 54 nM.
As for `Oc1cc(-c2ccc3[nH]nc(-c4ccnc(N5CCOCC5)c4)c3c2)ccn1` [Example 100], the IC50 under setting [1] stood at 3.4 nM.
Same read-out and setting: under `CCCc1cnc(-c2ccc3[nH]nc(-c4ccnc(N5CCOCC5)c4)c3c2)nc1` [Example 335] stands 5.4 nM; under `c1cc(-c2n[nH]c3ccc(CNCC4CC4)cc23)cc(N2CCOCC2)n1` [Example 87], 424 nM.
Still for that read-out and setting: under `Cn1cc(-c2ccc3[nH]nc(-c4ccnc(N5C[C@H](F)[C@@H](F)C5)c4)c3c2)cn1` [Example 271] stands 2.2 nM.
The same measure, in the same setting: then `Oc1ccc2[nH]nc(-c3ccnc(N4CCOCC4)c3)c2c1` [Example 78], with 5.3 nM.
As to `CC(C)Oc1ccc2[nH]nc(-c3ccnc(NC(=O)c4ccccn4)c3)c2c1` [Example 144], the IC50 under setting [2] is 29.2 nM.
Still for that read-out and setting: then `CC(C)Oc1ccc2[nH]nc(-c3ccnc(N4C5CCCC4CC5)c3)c2c1` [Example 179], with 17.7 nM.
For the molecule `CC(C)Oc1ccc2[nH]nc(-c3ccnc(N4CCN(S(C)(=O)=O)C(C)C4)c3)c2c1` (stereo not shown) [Example 385], the IC50 under setting [1] was determined as 2.2 nM.
With `FC1(F)CCN(c2cc(-c3n[nH]c4ccc(OC(F)(F)F)cc34)ccn2)C1` [Example 245], the IC50 under setting [2] came to 1490 nM.
In the case of `COC(=O)c1ccc2[nH]nc(-c3ccnc(N4CCOCC4)c3)c2c1` [Example 393], the IC50 under setting [1] amounted to 15 nM.
On to `CC(C)Oc1ccc2[nH]nc(-c3ccnc(N4CCCC(CO)C4)c3)c2c1` (stereo not shown) [Example 131], for which the IC50 under setting [2] is 1.5 nM.
On the same count and under the same terms, then `c1ccc2c(-c3ccnc(N4CCCCC4)c3)n[nH]c2c1` [Example 6], with 16 nM; and `COCCNc1cc(-c2n[nH]c3ccccc23)ccn1` [Example 4], with 46 nM.
`CCOc1ccc2[nH]nc(-c3ccnc(N4CC5C(C4)C5(C#N)c4ccccn4)c3)c2c1` (stereo not shown) [Example 229]: the IC50 under setting [2] was 113 nM.
For `CC(C)Oc1ccc2[nH]nc(-c3ccnc(N4C[C@@H]5C[C@H]4CO5)c3)c2c1` [Example 176], under setting [2], the IC50 is 7.1 nM.
Regarding `OC1CCN(c2cc(-c3n[nH]c4ccccc34)ccn2)CC1` [Example 10], the IC50 under setting [2] is 24 nM.
